Measurements published in patent publication EP3829579B1, “1,3,8-TRIAZASPIRO COMPOUNDS AND THEIR USE AS MEDICAMENTS FOR THE TREATMENT OF REPERFUSION INJURY” (Maria Cecilia Hospital S.p.A., priority 2018, dated 2020).

Key:
[1] = system: ATP synthesis; assay: luciferin-luciferase assay of mitochondrial ATP; assay type: cell-based; settings: living cells, basal conditions and following Ca2+-dependent stimulus
Source text: (§1) The data were obtained by recording the absorbance changes at 540 nm at the tenth minute of measurement, and subsequently converted to a percentage. Black bar: untreated and unstimulated mitochondria; black control bar: untreated and Ca2+ stimulated mitochondria; dark grey bar: pre-treatment with CsA and stimulation with Ca2+; light bar: pre-treatment with RR and stimulation with Ca2+; first white bar from the top: treatment with compound 1 and stimulation with Ca2+; white bars: pre-treatment with the compounds of the invention and stimulation with Ca2+. […] The subcellular localization of compound 1 was studied by HPLC-HRMS analysis of samples from different cellular compartments, before and after treatment with the compound. […] The grey region of the HPLC spectrum corresponds to a single mass peak at [M+1]+ m/z of 386.1534 (lower panel, [M+H]+ calculated for compound 1 = 386.1533). […] The grey band of the HPLC spectrum corresponds to a mixture of mass peaks detected through the HRMS analysis (lower panel). C: HPLC-HRMS profile of the mitochondrial fraction isolated from cells pre-treated with compound 1 which clearly indicates the presence of the compound with an HPLC band at a retention time of 8.2 min (upper panel). The grey area of the signal corresponds to a mixture of mass peaks (lower panel) among which [M+1]+ m/z of 386.1534, which identifies the undetectable compound 1 in the corresponding untreated fraction (panel B). […] A: Content of mitochondrial ATP in living cells under basal conditions, evaluated based on the luciferase-luciferin protocol. B: Mitochondrial ATP production following stimulation by a Ca2+ dependent agonist. "Histamine" indicates stimulus with histamine. C: MTT cell viability assay after 24h, 48h and 72h of treatment of live cells with compounds of Formula (I) at different concentrations. In particular, black bar: cells treated with vehicle; dotted bars: compound at the concentration of 1 µM; bars with small black and white squares: compound at a concentration of 5 µM; bars with large black and white squares: compound at a concentration of 10 µM. A standardization was carried out with respect to the vehicle. […] A: Diagram depicting an experiment on an isolated rat heart by the Langendorff system. B: Coronary artery perfusion pressure (CPP) recorded on rat heart in conditions of stabilization, ischemia and reperfusion. C: Pressure developed by the left ventricle (LVPdp) recorded under the same conditions as B. D: End-diastolic pressure recorded in the same conditions as B and C. E: TUNEL apoptotic assay for the evaluation of the cardioprotective effect in cardiomyocytes of the heart.**:p value<0.01; ****:p value<0.0001.
(§2) Compounds 5c, 6g and 10 resulted to be very potent in inhibiting mPTP in the in vitro tests. In order to identify any side effects in the use of these compounds in living cells that could exclude their future development in therapy, and given the crucial role of the C subunit of the ATP synthase in energy production, two important parameters were evaluated, such as cell viability and mitochondrial ATP content, in basal conditions and following Ca^2+-dependent stimulus (Figure 5A-C).

[2] = system: release of cytochrome C (Cyt.C) from the mitochondria; assay: detection of cytochrome c in the mitochondrial fraction under Ca2+-dependent stress; assay type: cell-based; settings: Ca2+-dependent stress conditions
[3] = system: live cells; assay: MTT cell viability assay; assay type: cell-based; settings: micromolar concentrations (1, 5, 10 µM); for reduction of MTT compared to the control: 24h and 48h; for effect on cell viability (MTT): after 72h
Source text: (§3) The data were obtained by recording the absorbance changes at 540 nm at the tenth minute of measurement, and subsequently converted to a percentage. Black bar: untreated and unstimulated mitochondria; black control bar: untreated and Ca2+ stimulated mitochondria; dark grey bar: pre-treatment with CsA and stimulation with Ca2+; light bar: pre-treatment with RR and stimulation with Ca2+; first white bar from the top: treatment with compound 1 and stimulation with Ca2+; white bars: pre-treatment with the compounds of the invention and stimulation with Ca2+. […] The subcellular localization of compound 1 was studied by HPLC-HRMS analysis of samples from different cellular compartments, before and after treatment with the compound. […] The grey region of the HPLC spectrum corresponds to a single mass peak at [M+1]+ m/z of 386.1534 (lower panel, [M+H]+ calculated for compound 1 = 386.1533). […] The grey band of the HPLC spectrum corresponds to a mixture of mass peaks detected through the HRMS analysis (lower panel). C: HPLC-HRMS profile of the mitochondrial fraction isolated from cells pre-treated with compound 1 which clearly indicates the presence of the compound with an HPLC band at a retention time of 8.2 min (upper panel). The grey area of the signal corresponds to a mixture of mass peaks (lower panel) among which [M+1]+ m/z of 386.1534, which identifies the undetectable compound 1 in the corresponding untreated fraction (panel B). […] A: Content of mitochondrial ATP in living cells under basal conditions, evaluated based on the luciferase-luciferin protocol. B: Mitochondrial ATP production following stimulation by a Ca2+ dependent agonist. "Histamine" indicates stimulus with histamine. C: MTT cell viability assay after 24h, 48h and 72h of treatment of live cells with compounds of Formula (I) at different concentrations. […] B: Coronary artery perfusion pressure (CPP) recorded on rat heart in conditions of stabilization, ischemia and reperfusion. C: Pressure developed by the left ventricle (LVPdp) recorded under the same conditions as B. D: End-diastolic pressure recorded in the same conditions as B and C. […]
as §2

[4] = system: mPTP; assay: mitochondrial swelling assay (absorbance at 540 nm, Ca2+ stimulation); assay type: biochemical; settings: mitochondria isolated from mouse liver, monitored for 10 minutes
Source text: as §1, with “E: TUNEL apoptotic assay for the evaluation of the cardioprotective effect in cardiomyocytes of the heart.**:p value<0.01; ****:p value<0.0001.” left out
Mitochondria isolated from mouse liver were checked for purity (Figure 3A) and functionality thereof, and then stimulated with Ca^2+; the decrease in absorbance at 540 nm, indicative of mitochondrial swelling, was monitored for 10 minutes.

[5] = system: rat isolated heart; assay: isolated rat heart ischemia-reperfusion (Langendorff system), with TUNEL assay; assay type: in vivo; settings: ex vivo
Source text: as §3
Considering the potential of the inhibitors claimed herein in relation to: i) ability to desensitize the opening of mPTP; ii) ability to protect against cell death by inhibiting the release of Cyt.C; iii) ability to preserve cell viability, and iv) mitochondrial ATP content, the effects of compound 10 were studied in an animal model of cardiac ischemia-reperfusion. […] At the end of the procedure, the hearts were also analyzed for cell death by terminal deoxynucleotidyl transferase dUTP nick-end labelling (TUNEL) assay.

[6] = subcellular fractionation with HPLC-HRMS detection (subcellular localization); assay type: cell-based; settings: cells pre-treated with compound, mitochondria, cytosol and endoplasmic reticulum fractions
Source text: The data were obtained by recording the absorbance changes at 540 nm at the tenth minute of measurement, and subsequently converted to a percentage. Black bar: untreated and unstimulated mitochondria; black control bar: untreated and Ca2+ stimulated mitochondria; dark grey bar: pre-treatment with CsA and stimulation with Ca2+; light bar: pre-treatment with RR and stimulation with Ca2+; first white bar from the top: treatment with compound 1 and stimulation with Ca2+; white bars: pre-treatment with the compounds of the invention and stimulation with Ca2+. […] The grey region of the HPLC spectrum corresponds to a single mass peak at [M+1]+ m/z of 386.1534 (lower panel, [M+H]+ calculated for compound 1 = 386.1533). […] The grey band of the HPLC spectrum corresponds to a mixture of mass peaks detected through the HRMS analysis (lower panel). […] A: Content of mitochondrial ATP in living cells under basal conditions, evaluated based on the luciferase-luciferin protocol. […] B: Coronary artery perfusion pressure (CPP) recorded on rat heart in conditions of stabilization, ischemia and reperfusion. C: Pressure developed by the left ventricle (LVPdp) recorded under the same conditions as B. D: End-diastolic pressure recorded in the same conditions as B and C. […]

[7] = system: mPTP; assay: cobalt-calcein assay of Ca2+-induced mPTP opening in HeLa cells (ionomycin stimulation); assay type: cell-based; settings: pre-treatment 1 µM, assessed by the kinetics slope
[8] = 10 µM constant-volume perfusion during the first 10 minutes of reperfusion, 30 minutes ischemia, 1 hour reperfusion

| SMILES | proton flow and ATP synthesis / ATP levels [1] | release of Cyt.C from the mitochondria [2] | reduction of MTT compared to the control [3] | effect on cell viability (MTT) [3] | inhibition of Ca2+-induced mPTP opening (mitochondrial swelling, decrease in absorbance at 540 nm) [4] | also measured |
| --- | --- | --- | --- | --- | --- | --- |
| O=C1N=CN(c2ccc(Cl)cc2)C12CCN(Cc1ccccc1)CC2 [compound 5c, 8-benzyl-1-(4-chlorophenyl)-1,3,8-triazaspiro[4.5]dec-2-en-4-one] | did not reduce ATP levels | prevent the release of Cyt.C | did not induce a significant reduction | some negative effect | significantly more performing than compound 1 | – |
| O=C1NCN(c2ccccc2)C12CCN(S(=O)(=O)c1ccc(Cl)s1)CC2 [compound 10, 8-((5-chlorotiophen-2-yl)sulfonyl)-1-phenyl-1,3,8-triazaspiro[4.5]decan-4-one] | did not reduce ATP levels | prevent the release of Cyt.C | did not induce a significant reduction | some negative effect | significantly more performing than compound 1 | coronary perfusion pressure (CPP) [5, 8]: decrease; diastolic pressure (EDP) [5, 8]: decrease; diastolic pressure of the left ventricle (LVEDP) [5, 8]: increased; percentage of cardiomyocytes positive for TUNEL (apoptotic) ([5]; 10µM, hearts at the end of the procedure, 64% positive without compound): significantly reduced |
| CC[C@H]1/C=C/C=C/C[C@@H](C)[C@H](O)[C@@](C)(O)C(=O)[C@@H](C)[C@H](O)[C@@H](C)C(=O)[C@@H](C)[C@H](O)[C@@H](C)/C=C/C(=O)O[C@@H]2[C@H](C)[C@H](CC1)O[C@]1(CC[C@H](C)[C@H](C[C@@H](C)O)O1)[C@H]2C [Oligomycin, reference compound] | significantly inhibited | – | – | – | – | – |
| Cc1ccc(S(=O)(=O)N2CCC3(CC2)C(=O)NCN3c2ccccc2)cc1 [compound 1, 1-phenyl-8-tosyl-1,3,8-triazaspiro[4.5]decan-4-one] | significantly inhibited | – | – | – | – | subcellular localization [6]: selective accumulation of the compound in the mitochondria; desensitization of the mPTP opening [7]: about 50% |
| O=C1NCN(c2cccc(C(F)(F)F)c2)C12CCN(Cc1ccccc1)CC2 [compound 6g, 8-benzyl-1-(3-(trifluoromethyl)phenyl)-1,3,8-triazaspiro[4.5]decan-4-one] | did not reduce ATP levels | prevent the release of Cyt.C | – | – | significantly more performing than compound 1 | – |
| N.N.N.N.N.N.N.N.N.N.N.N.N.N.[Cl-].[Cl-].[Cl-].[Cl-].[Cl-].[Cl-].[O-2].[O-2].[Ru+3].[Ru+3].[Ru+4] [RR, Red Ruthenium, reference compound] | – | – | – | – | prevented | – |
